According to patent US8674095B2, “Compounds for treating neuropsychiatric conditions” (Afraxis Holdings, Inc., priority 2008, dated 2014):
pIC50: −log10 of the molar value.

How the values were obtained:
Assay type in all cases: biochemical
PAK1 = PAK1 (Homo sapiens, UniProt Q13153); assay: Z'Lyte fluorescence-based (FRET) kinase assay, PAK1; details: 50 μM ATP (Km apparent), 1 hr room temperature, 1% DMSO
Experimental: (§1) A fluorescence-based assay format is used to determine IC50 values of test compounds in vitro. Purified PAK kinase is incubated with ATP, and a test compound at various concentrations and a substrate peptide containing two fluorophores. In a second step, the reaction mix is incubated with a site-specific protease that cleaves non-phosphorylated but not phosphorylated substrate peptide, disrupting the FRET signal generated by the two fluorophores in the cleaved peptide (Z′Lyte™ Kinase assay platform; Life Technologies).
(§2) Reagents: 50 mM HEPES, pH 7.5; 0.01% BRIJ-35; 10 mM MgCl2; 1 mM EGTA, 2 uM substrate peptide Ser/Thr20 (proprietary Life Technologies Sequence), PAK enzyme [2.42-30.8 ng for PAK1, 0.29-6 ng for PAK2, 1.5-20 ng for PAK3 and 0.1-0.86 ng for PAK4; actual enzyme amounts depend on lot activity of the enzyme preparation]
(§3) Test compounds are dissolved in DMSO at various concentrations; the final DMSO concentration in the assay reaction is 1%.
(§4) ATP concentration at Km apparent is used in the assay [50 μM ATP for PAK1 assay, 75 μM ATP for PAK2 assay, 100 μM ATP for PAK3 assay, 5 μM ATP for PAK-4 assay] in a total assay volume of […] Assay reactions are incubated at room temperature for 1 hr. Following the kinase reaction, 5 μl of 1:256 dilution of development solution A (Life Technologies) is added and the reaction mix is incubated for an additional 1 hr at room temperature.
(§5) Plates are analyzed in a standard fluorescence plate reader (Tecan or equivalent) using an excitation wavelength of 400 nm and emission wavelengths of 445 nm and 520 nm. Inhibition of kinase reaction is determined by emission ratio=emission@445 nm/emission@520 nm

PAK4 = PAK4 (Homo sapiens, UniProt O96013); assay: Z'Lyte fluorescence-based (FRET) kinase assay, PAK4; details: 5 μM ATP (Km apparent), 1 hr room temperature, 1% DMSO
Chain of PAK4 (O96013 whole entry): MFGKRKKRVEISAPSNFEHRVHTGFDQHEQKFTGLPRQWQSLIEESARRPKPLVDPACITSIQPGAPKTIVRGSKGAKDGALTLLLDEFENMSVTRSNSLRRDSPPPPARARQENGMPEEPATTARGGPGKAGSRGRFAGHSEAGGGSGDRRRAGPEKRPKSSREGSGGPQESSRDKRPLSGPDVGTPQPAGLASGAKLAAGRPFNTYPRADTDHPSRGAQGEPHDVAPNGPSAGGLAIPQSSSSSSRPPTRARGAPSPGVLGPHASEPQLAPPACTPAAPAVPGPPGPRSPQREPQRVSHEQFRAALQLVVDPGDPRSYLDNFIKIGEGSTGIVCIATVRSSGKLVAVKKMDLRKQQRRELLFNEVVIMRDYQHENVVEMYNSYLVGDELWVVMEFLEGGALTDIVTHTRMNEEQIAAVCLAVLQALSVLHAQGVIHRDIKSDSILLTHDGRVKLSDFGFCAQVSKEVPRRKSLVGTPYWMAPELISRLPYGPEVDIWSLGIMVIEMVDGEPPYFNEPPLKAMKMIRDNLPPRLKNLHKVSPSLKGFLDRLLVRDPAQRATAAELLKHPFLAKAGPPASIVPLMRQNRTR
Experimental: as §1, §2, §3, §4, §5

PAK3 = PAK3 (Homo sapiens, UniProt O75914); assay: Z'Lyte fluorescence-based (FRET) kinase assay, PAK3; details: 100 μM ATP (Km apparent), 1 hr room temperature, 1% DMSO
Chain of PAK3 (O75914 whole entry): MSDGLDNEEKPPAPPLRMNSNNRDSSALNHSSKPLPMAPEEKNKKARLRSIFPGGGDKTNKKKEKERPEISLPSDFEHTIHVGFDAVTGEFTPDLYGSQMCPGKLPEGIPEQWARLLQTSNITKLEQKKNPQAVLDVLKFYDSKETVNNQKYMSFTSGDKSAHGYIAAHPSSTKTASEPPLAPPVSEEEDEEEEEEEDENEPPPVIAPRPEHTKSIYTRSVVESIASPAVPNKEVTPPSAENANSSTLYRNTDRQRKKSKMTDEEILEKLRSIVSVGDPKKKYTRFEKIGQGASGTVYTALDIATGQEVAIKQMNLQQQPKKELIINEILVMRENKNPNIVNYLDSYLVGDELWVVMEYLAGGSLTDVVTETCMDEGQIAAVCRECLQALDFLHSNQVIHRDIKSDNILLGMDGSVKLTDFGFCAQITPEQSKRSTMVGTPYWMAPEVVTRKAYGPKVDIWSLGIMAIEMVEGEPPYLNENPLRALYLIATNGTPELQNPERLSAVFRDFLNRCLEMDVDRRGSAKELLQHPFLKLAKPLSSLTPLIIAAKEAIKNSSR
Experimental: as §1, §2, §3, §4, §5

PAK2 = PAK2 (Homo sapiens, UniProt Q13177); assay: Z'Lyte fluorescence-based (FRET) kinase assay, PAK2; details: 75 μM ATP (Km apparent), 1 hr room temperature, 1% DMSO
Chain of PAK2 (Q13177 whole entry): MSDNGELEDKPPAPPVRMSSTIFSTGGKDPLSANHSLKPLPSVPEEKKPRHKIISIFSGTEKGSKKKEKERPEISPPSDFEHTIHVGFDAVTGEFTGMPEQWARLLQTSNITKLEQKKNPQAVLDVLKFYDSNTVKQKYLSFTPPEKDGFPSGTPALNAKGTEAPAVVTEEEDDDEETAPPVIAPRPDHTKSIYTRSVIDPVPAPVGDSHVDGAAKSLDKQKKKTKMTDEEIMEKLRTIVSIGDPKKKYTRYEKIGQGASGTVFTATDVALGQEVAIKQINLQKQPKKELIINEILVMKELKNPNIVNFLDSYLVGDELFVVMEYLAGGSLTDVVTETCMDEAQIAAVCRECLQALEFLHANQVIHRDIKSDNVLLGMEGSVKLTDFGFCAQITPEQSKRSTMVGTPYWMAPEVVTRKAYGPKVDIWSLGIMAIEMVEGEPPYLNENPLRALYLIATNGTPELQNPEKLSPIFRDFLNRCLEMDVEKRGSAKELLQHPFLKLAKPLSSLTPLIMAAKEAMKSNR
Experimental: as §1, §2, §3, §4, §5

PAK1, PAK2, PAK3, PAK-4 = assay: PAK isoform inhibition profile of example compounds; details: classification of example compounds in the description; underlying IC50 data in Table 8
Text: In some embodiments, the PAK inhibitor is a Group I PAK inhibitor that inhibits, for example, one or more Group I PAK polypeptides, for example, PAK1, PAK2, and/or PAK3. […] In some embodiments, the PAK inhibitor is a PAK2 inhibitor. In some embodiments, the PAK inhibitor is a PAK3 inhibitor. In some embodiments, the PAK inhibitor is a mixed PAK1/PAK3 inhibitor. […] In some embodiments, the PAK inhibitor is a Group II PAK inhibitor that inhibits one or more Group II PAK polypeptides, for example PAK-4, PAK5, and/or PAK6. In some embodiments, the PAK inhibitor is a PAK4 inhibitor. In some embodiments, the PAK inhibitor is a PAK5 inhibitor. In some embodiments, the PAK inhibitor is a PAK6 inhibitor.
as §1, §2, §3, §4, §5

Chain of PAK1 (Q13153 whole entry): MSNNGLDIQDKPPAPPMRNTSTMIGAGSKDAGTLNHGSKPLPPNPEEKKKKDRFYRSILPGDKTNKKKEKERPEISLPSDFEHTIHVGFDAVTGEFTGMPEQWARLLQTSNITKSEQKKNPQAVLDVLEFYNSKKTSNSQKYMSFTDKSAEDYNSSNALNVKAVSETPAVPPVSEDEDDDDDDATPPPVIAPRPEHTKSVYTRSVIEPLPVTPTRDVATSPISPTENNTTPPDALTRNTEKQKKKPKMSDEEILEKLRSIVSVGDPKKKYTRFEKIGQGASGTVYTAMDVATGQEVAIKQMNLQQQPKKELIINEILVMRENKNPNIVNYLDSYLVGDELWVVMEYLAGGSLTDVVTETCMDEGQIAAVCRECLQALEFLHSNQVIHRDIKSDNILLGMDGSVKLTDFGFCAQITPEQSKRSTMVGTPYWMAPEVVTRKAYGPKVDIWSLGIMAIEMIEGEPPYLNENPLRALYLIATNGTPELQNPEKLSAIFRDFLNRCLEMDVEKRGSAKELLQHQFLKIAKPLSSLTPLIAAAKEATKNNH

Row | Compound | pIC50 (PAK1) | pIC50 (PAK4) | pIC50 (PAK3) | pIC50 (PAK2) | PAK inhibitor type (isoform profile) (PAK1, PAK2, PAK3, PAK-4)
1 | COc1cccc2c1C(n1c(=O)ccc3cnc(Nc4ccc(N5CCN(C)CC5)cc4)nc31)CC2 (centres unmarked) [Compound 1, 8-(7-methoxy-2,3-dihydro-1H-inden-1-yl)-2-(4-(4-methylpiperazin-1-yl)phenylamino)pyrido[2,3-d]pyrimidin-7(8H)-one] | 5.00 to 6.00 | 5.00 to 6.00 | < 5.00 | < 5.00 | –
2 | CN1CCN(c2ccc(Nc3ncc4ccc(=O)n(Cc5ccccc5Br)c4n3)cc2)CC1 [Compound 27, 8-(2-bromobenzyl)-2-(4-(4-methylpiperazin-1-yl)phenylamino)pyrido[2,3-d]pyrimidin-7(8H)-one] | > 6.00 | > 6.00 | > 6.00 | > 6.00 | mixed PAK1/PAK2/PAK3/PAK-4 inhibitor
3 | CN1CCN(c2ccc(Nc3ncc4ccc(=O)n(Cc5cccc(Cl)c5)c4n3)cc2)CC1 [Compound 34] | 5.00 to 6.00 | < 5.00 | – | < 5.00 | –
4 | Cc1c(F)cccc1Cn1c(=O)ccc2cnc(Nc3ccc(N4CCN(C)CC4)cc3)nc21 [Compound 49] | > 6.00 | 5.00 to 6.00 | < 5.00 | 5.00 to 6.00 | PAK1 inhibitor
5 | CN1CCN(c2ccc(Nc3ncc4ccc(=O)n(Cc5c(F)cccc5Cl)c4n3)cc2)CC1 [Compound 53] | > 6.00 | > 6.00 | > 6.00 | > 6.00 | mixed PAK1/PAK2/PAK3/PAK-4 inhibitor
6 | CN1CCN(c2ccc(Nc3ncc4ccc(=O)n(Cc5c(Cl)cccc5Cl)c4n3)cc2)CC1 [Compound 57] | > 6.00 | > 6.00 | 5.00 to 6.00 | > 6.00 | mixed PAK1/PAK2/PAK-4 inhibitor
7 | CN1CCN(c2ccc(Nc3ncc4ccc(=O)n(Cc5c(F)cccc5F)c4n3)cc2)CC1 [Compound 58] | > 6.00 | 5.00 to 6.00 | 5.00 to 6.00 | 5.00 to 6.00 | PAK1 inhibitor
8 | Cc1ccc(F)cc1Cn1c(=O)ccc2cnc(Nc3ccc(N4CCN(C)CC4)cc3)nc21 [Compound 59] | > 6.00 | > 6.00 | 5.00 to 6.00 | 5.00 to 6.00 | mixed PAK1/PAK-4 inhibitor
9 | COc1cccc(F)c1Cn1c(=O)ccc2cnc(Nc3ccc(N4CCN(C)CC4)cc3)nc21 [Compound 61] | > 6.00 | > 6.00 | 5.00 to 6.00 | 5.00 to 6.00 | mixed PAK1/PAK-4 inhibitor
10 | Cc1cccc(Cl)c1Cn1c(=O)ccc2cnc(Nc3ccc(N4CCN(C)CC4)cc3)nc21 [Compound 67] | > 6.00 | > 6.00 | 5.00 to 6.00 | 5.00 to 6.00 | –
11 | CC(c1ccccc1C(F)(F)F)n1c(=O)ccc2cnc(Nc3ccc(N4CCN(C)CC4)cc3)nc21 (centres unmarked) [Compound 70] | 5.00 to 6.00 | 5.00 to 6.00 | < 5.00 | < 5.00 | –
12 | CN1CCN(c2ccc(Nc3ncc4ccc(=O)n(Cc5ccccc5-c5cc(C(F)(F)F)nn5C)c4n3)cc2)CC1 [Compound 76] | 5.00 to 6.00 | < 5.00 | 5.00 to 6.00 | 5.00 to 6.00 | –
13 | CN1CCN(c2ccc(Nc3ncc4ccc(=O)n(Cc5c(Cl)cccc5-c5ccccc5)c4n3)cc2)CC1 [Compound 82] | 5.00 to 6.00 | 5.00 to 6.00 | < 5.00 | < 5.00 | –
14 | CN1CCN(c2ccc(Nc3ncc4ccc(=O)n(Cc5c(Cl)cccc5-c5cccs5)c4n3)cc2)CC1 [Compound 83] | 5.00 to 6.00 | < 5.00 | < 5.00 | < 5.00 | –
15 | O=c1ccc2cnc(Nc3ccc(N4CCNCC4)c(F)c3)nc2n1Cc1c(Cl)cccc1C1CC1 [Compound 86] | – | – | – | > 6.00 | inhibits all three Group I PAK isoforms (PAK1, 2 and PAK3) with equal or similar potency
16 | CSc1cccc(F)c1Cn1c(=O)ccc2cnc(Nc3ccc(N4CCN(C)CC4)cc3)nc21 [Compound 91, 8-(2-fluoro-6-(methylthio)benzyl)-2-(4-(4-methylpiperazin-1-yl)phenylamino)pyrido[2,3-d]pyrimidin-7(8H)-one] | – | – | – | > 6.00 | mixed PAK1/PAK2/PAK3/PAK-4 inhibitor
17 | COc1cc(Nc2nccc(-c3ccc(NCCN)nc3)n2)cc(OC)c1OC [Compound 95] | > 6.00 | > 6.00 | 5.00 to 6.00 | 5.00 to 6.00 | –
18 | CN(C)CCOc1ccc(Nc2nccc(-c3ccc(NCCN)nc3)n2)cc1 [Compound 96] | 5.00 to 6.00 | 5.00 to 6.00 | – | 5.00 to 6.00 | –
19 | O=c1c(-c2ccccc2)cc2cnc(Nc3ccc(N4CCNCC4)cc3)nc2n1Cc1ccccc1C(F)(F)F [Compound 120] | – | – | – | > 6.00 | inhibits all three Group I PAK isoforms (PAK1, 2 and PAK3) with equal or similar potency

Now from value to compound, other results behind:

Row | pIC50 (PAK1) | pIC50 (PAK4) | pIC50 (PAK3) | pIC50 (PAK2) | Compound | PAK inhibitor type (isoform profile) (PAK1, PAK2, PAK3, PAK-4)
20 | 5.00 to 6.00 | < 5.00 | – | < 5.00 | CN1CCN(c2ccc(Nc3nccc(-c4ccc(Cl)nc4)n3)cc2)CC1 [Compound 97] | –
21 | > 6.00 | 5.00 to 6.00 | – | 5.00 to 6.00 | CN1CCN(c2ccc(Nc3nccc(-c4ccc(NCCCN)nc4)n3)cc2)CC1 [Compound 98] | PAK1 inhibitor
22 | 5.00 to 6.00 | 5.00 to 6.00 | – | < 5.00 | CN1CCN(c2ccc(Nc3nccc(-c4ccc(NCCN5CCOCC5)nc4)n3)cc2)CC1 [Compound 99] | –
23 | 5.00 to 6.00 | > 6.00 | < 5.00 | 5.00 to 6.00 | CN1CCN(c2ccc(Nc3nccc(-c4ccc(NCCN5CCCCC5)nc4)n3)cc2)CC1 [Compound 100] | –
24 | 5.00 to 6.00 | 5.00 to 6.00 | – | 5.00 to 6.00 | CN(C)CCNc1ccc(-c2ccnc(Nc3ccc(N4CCN(C)CC4)cc3)n2)cn1 [Compound 101] | –
25 | 5.00 to 6.00 | < 5.00 | – | < 5.00 | CN(C)CCOc1ccc(-c2ccnc(Nc3ccc(N4CCN(C)CC4)cc3)n2)cn1 [Compound 102] | –
26 | 5.00 to 6.00 | < 5.00 | – | < 5.00 | CN1CCN(CCNc2ccc(-c3ccnc(Nc4ccc(N5CCN(C)CC5)cc4)n3)cn2)CC1 [Compound 103] | –
27 | 5.00 to 6.00 | > 6.00 | < 5.00 | 5.00 to 6.00 | CC(C)CNc1ccc(-c2ccnc(Nc3ccc(N4CCN(C)CC4)cc3)n2)cn1 [Compound 104] | –
28 | 5.00 to 6.00 | 5.00 to 6.00 | – | 5.00 to 6.00 | CCCNc1ccc(-c2ccnc(Nc3ccc(N4CCN(C)CC4)cc3)n2)cn1 [Compound 105] | –
29 | – | – | – | 5.00 to 6.00 | Cc1cc(Nc2nccc(-c3ccc(NCCN)nc3)n2)ccc1N1CCN(C)CC1 [Compound 106] | mixed PAK1/PAK-4 inhibitor
30 | 5.00 to 6.00 | > 6.00 | < 5.00 | 5.00 to 6.00 | Cc1cc(Nc2nccc(-c3ccc(NCCN4CCCCC4)nc3)n2)ccc1N1CCN(C)CC1 [Compound 107] | –
31 | 5.00 to 6.00 | 5.00 to 6.00 | < 5.00 | 5.00 to 6.00 | CN1CCN(c2ccc(Nc3nccc(-c4ccc(N)nc4)n3)cc2)CC1 [Compound 108] | –
32 | 5.00 to 6.00 | > 6.00 | < 5.00 | < 5.00 | CCNc1ccc(-c2ccnc(Nc3ccc(N4CCN(C)CC4)cc3)n2)cn1 [Compound 109] | –
33 | 5.00 to 6.00 | 5.00 to 6.00 | < 5.00 | 5.00 to 6.00 | CN1CCN(c2ccc(Nc3nccc(-c4ccc(N(C)CCN)nc4)n3)cc2)CC1 [Compound 110] | –
34 | 5.00 to 6.00 | > 6.00 | < 5.00 | 5.00 to 6.00 | CN1CCN(c2cccc(Nc3nccc(-c4ccc(NCCN)nc4)n3)c2)CC1 [Compound 112] | –
35 | < 5.00 | < 5.00 | – | < 5.00 | CN1CCN(c2ccc(N(C)c3nccc(-c4ccc(NCCN)nc4)n3)cc2)CC1 [Compound 114] | –
36 | < 5.00 | > 6.00 | < 5.00 | < 5.00 | CC(=O)N1CCN(c2ccc(Nc3nccc(-c4ccc(NCCN)nc4)n3)cc2)CC1 [Compound 115] | –
